22 molecules from patent publication US20150299125A1, “PRODRUG BIPYRIDYLAMINOPYRIDINES AS SYK INHIBITORS” (MERCK SHARP & DOHME CORP., priority 2012, published 2015) can be followed below.

The target in this assay is T1, recombinant human GST-Syk (Homo sapiens, UniProt P43405).
T1 construct: purchased Carna Biosciences 08-176
Nature of the assay: Homogeneous Time-Resolved Fluorescence (HTRF) assay for the recombinant human Syk enzyme. It counts as biochemical. The settings on record: recombinant human GST-Syk 5 pM, ATP 25 μM, read-out: IC50. The procedure:
Syk inhibition of the compounds of Formula (I) may be determined using the following assay protocol: Homogeneous Time-Resolved Fluorescence (HTRF) Assay for the Recombinant Human Syk Enzyme: A recombinant GST-hSyk fusion protein was used to measure potency of compounds to inhibit human Syk activity. […] Final volume of the reaction was 10 μL. Phosphorylation of the peptide was allowed to proceed for 45' at room temperature. To quench the reaction and detect the phosphorylated product, 2 nM of a Europium-anti-phosphotyrosine antibody (Perkin Elmer #AD0161) and 70 nM SA-APC (Perkin-Elmer #CR130-100) were added together in 15 mM Tris pH 7.5, 40 mM EDTA, 0.01% tween 20. Final volume of the quenching solution was 10 μL. The resulting HTRF signal was measured after 30 minutes on a EnVision (Perkin-Elmer) reader using a time-resolved fluorescence protocol.
As to `Cc1cc(Nc2cc(C(F)F)ccn2)nc(-c2ccc([C@](C)(O)[C@H]3CC[C@H](C(=O)OC(C)OC(=O)c4cnn(C)c4)CC3)nc2)c1` (stereo partly drawn) [Example 3-2, 1-[({Trans-4-[(1R)-1-(6-{[4-(difluoromethyl)pyridin-2-yl]amino}-4-methyl-2,3′-bipyridin-6′-yl)-1-hydroxyethyl]cyclohexyl}carbonyl)oxy]ethyl 1-methyl-1H-pyrazole-4-carboxylate], the IC50 came out at 1.9 nM.
Consider `Cc1cc(Nc2cc(C(F)F)ccn2)nc(-c2ccc([C@](C)(O)[C@H]3CC[C@H](C(=O)OC(C)OC(=O)c4cnn(C)c4)CC3)nc2)c1` (single isomer, unassigned) [Example 3-2a], for which the IC50 amounted to 19.1 nM.
The same measure for `Cc1cc(Nc2cc(C(F)F)ccn2)nc(-c2ccc([C@](C)(O)[C@H]3CC[C@H](C(=O)OC[C@H]4OC(O)[C@H](O)[C@@H](O)[C@@H]4O)CC3)nc2)c1` (stereo partly drawn) [Example 1-4, 6-O-({trans-4-[(1R)-1-(6-{[4-(difluoromethyl)pyridin-2-yl]amino}-4-methyl-2,3′-bipyridin-6′-yl)-1-hydroxyethyl]cyclohexyl}carbonyl)-D-glucopyranose]: 0.8 nM; for `CCOCCOCCOC(=O)OC(C)OC(=O)[C@H]1CC[C@H]([C@@](C)(O)c2ccc(-c3cc(C)cc(Nc4cc(C(F)F)ccn4)n3)cn2)CC1` (stereo partly drawn) [Example 2-15, 1-methyl-3-oxo-2,4,7,10-tetraoxadodec-1-yl trans-4-[(1R)-1-(6-{[4-(difluoromethyl)pyridin-2-yl]amino}-4-methyl-2,3′-bipyridin-6′-yl)-1-hydroxyethyl]cyclo hexanecarboxylate]: 32.9 nM; for `Cc1cc(Nc2cc(C(F)F)ccn2)nc(-c2ccc([C@](C)(O)[C@H]3CC[C@H](C(=O)OC[N+]4(C)CCC(F)(F)CC4)CC3)nc2)c1` [Example 5-13, 1-{[({trans-4-[(1R)-1-(6-{[4-(difluoromethyl)pyridin-2-yl]amino}-4-methyl-2,3′-bipyridin-6′-yl)-1-hydroxyethyl]cyclohexyl}carbonyl)oxy]methyl}-4,4-difluoro-1-methylpiperidinium]: 1.3 nM.
In the case of `Cc1cc(Nc2cc(C(F)F)ccn2)nc(-c2ccc([C@](C)(O)[C@H]3CC[C@H](C(=O)Oc4ccccc4)CC3)nc2)c1` [Example 1-6, Phenyl trans-4-[(1R)-1-(6-{[4-(difluoromethyl)pyridin-2-yl]amino}-4-methyl-2,3′-bipyridin-6′-yl)-1-hydroxyethyl]cyclohexanecarboxylate], the IC50 came to 9.7 nM.
Next, `CCOC(=O)C[N+](C)(C)COC(=O)[C@H]1CC[C@H]([C@@](C)(O)c2ccc(-c3cc(C)cc(Nc4cc(C(F)F)ccn4)n3)cn2)CC1` [Example 5-19, N-{[({trans-4-[(1R)-1-(6-{[4-(difluoromethyl)pyridin-2-yl]amino}-4-methyl-2,3′-bipyridin-6′-yl)-1-hydroxyethyl]cyclohexyl}carbonyl)oxy]methyl}-2-ethoxy-N,N-dimethyl-2-oxoethanaminium]: 0.8 nM.
Next, `CCOCCOCCOCCOC(=O)OCOC(=O)[C@H]1CC[C@H]([C@@](C)(O)c2ccc(-c3cc(C)cc(Nc4cc(C(F)F)ccn4)n3)cn2)CC1` [Example 2-5, 3-oxo-2,4,7,10,13-pentaoxapentadec-1-yl trans-4-[(1R)-1-(6-{[4-(difluoromethyl)pyridin-2-yl]amino}-4-methyl-2,3′-bipyridin-6′-yl)-1-hydroxyethyl]cyclo hexanecarboxylate]: 7.5 nM; `Cc1cc(Nc2cc(C(F)F)ccn2)nc(-c2ccc([C@](C)(O)[C@H]3CC[C@H](C(=O)OC[N+]4(CC#N)CCCCC4)CC3)nc2)c1` [Example 5-16, 1-(cyanomethyl)-1-{[({trans-4-[(1R)-1-(6-{[4-(difluoromethyl)pyridin-2-yl]amino}-4-methyl-2,3′-bipyridin-6′-yl)-1-hydroxyethyl]cyclohexyl}carbonyl)oxy]methyl}piperidinium]: 0.6 nM.
The same measure for `CSCCOC(=O)OCOC(=O)[C@H]1CC[C@H]([C@@](C)(O)c2ccc(-c3cc(C)cc(Nc4cc(C(F)F)ccn4)n3)cn2)CC1` [Example 2-10, ({[2-(methylsulfanyl)ethoxy]carbonyl}oxy) methyl trans-4-[(1R)-1-(6-{[4-(difluoromethyl)pyridin-2-yl]amino}-4-methyl-2,3′-bipyridin-6′-yl)-1-hydroxyethyl]cyclo hexanecarboxylate]: below 0.5 nM.
Regarding `Cc1cc(Nc2cc(C(F)F)ccn2)nc(-c2ccc([C@](C)(O)[C@H]3CC[C@H](C(=O)OC[C@@H](O)CO)CC3)nc2)c1` [Example 1-3, (2S)-2,3-Dihydroxypropyl trans-4-[(1R)-1-(6-{[4-(difluoromethyl)pyridin-2-yl]amino}-4-methyl-2,3′-bipyridin-6′-yl)-1-hydroxyethyl]cyclohexanecarboxylate], the IC50 came out at 2.5 nM.
The same measure for `CCCCCCCC[N+](CCCCCCCC)(CCCCCCCC)COC(=O)[C@H]1CC[C@H]([C@@](C)(O)c2ccc(-c3cc(C)cc(Nc4cc(C(F)F)ccn4)n3)cn2)CC1` [Example 5-8, N-{[({trans-4-[(1R)-1-(6-{[4-(difluoromethyl)pyridin-2-yl]amino}-4-methyl-2,3′-bipyridin-6′-yl)-1-hydroxyethyl]cyclohexyl}carbonyl)oxy]methyl}-N,N-dioctyloctan-1-aminium]: 2.5 nM; for `Cc1cc(Nc2cc(C(F)F)ccn2)nc(-c2ccc([C@](C)(O)[C@H]3CC[C@H](C(=O)OCOC(=O)OCC[S+](C)[O-])CC3)nc2)c1` (single isomer, unassigned) [Example 7-5]: 0.6 nM.
The same measure for `Cc1cc(Nc2cc(C(F)F)ccn2)nc(-c2ccc([C@](C)(O)[C@H]3CC[C@H](C(=O)OC[N+]4(C)CCN(CCO)CC4)CC3)nc2)c1` [Example 5-28, 1-{[({trans-4-[(1R)-1-(6-{[4-(difluoromethyl)pyridin-2-yl]amino}-4-methyl-2,3′-bipyridin-6′-yl)-1-hydroxyethyl]cyclohexyl}carbonyl)oxy]methyl}-4-(2-hydroxyethyl)-1-methylpiperazin-1-ium]: 2.9 nM; for `Cc1cc(Nc2cc(C(F)F)ccn2)nc(-c2ccc([C@](C)(O)[C@H]3CC[C@H](C(=O)OC[N+](C)(C)CCc4ccccn4)CC3)nc2)c1` [Example 5-21, N-{[({trans-4-[(1R)-1-(6-{[4-(difluoromethyl)pyridin-2-yl]amino}-4-methyl-2,3′-bipyridin-6′-yl)-1-hydroxyethyl]cyclohexyl}carbonyl)oxy]methyl}-N,N-dimethyl-2-pyridin-2-ylethanaminium]: below 0.5 nM.
Next, `COCCOCCNC(=O)OCOC(=O)[C@H]1CC[C@H]([C@@](C)(O)c2ccc(-c3cc(C)cc(Nc4cc(C(F)F)ccn4)n3)cn2)CC1` [Example 4-3, 3-oxo-2,7,10-trioxa-4-azaundec-1-yl trans-4-[(1R)-1-(6-{[4-(difluoromethyl)pyridin-2-yl]amino}-4-methyl-2,3′-bipyridin-6′-yl)-1-hydroxyethyl]cyclohexanecarboxylate]: 2.4 nM; `COCCN(C)C(=O)OC(C)OC(=O)[C@H]1CC[C@H]([C@@](C)(O)c2ccc(-c3cc(C)cc(Nc4cc(C(F)F)ccn4)n3)cn2)CC1` (single isomer, unassigned) [Example 4-1b]: 12.9 nM; `CSCCOC(=O)[C@H]1CC[C@H]([C@@](C)(O)c2ccc(-c3cc(C)cc(Nc4cc(C(F)F)ccn4)n3)cn2)CC1` [Example 1-7, 2-(methylsulfanyl)ethyl trans-4-[(1R)-1-(6-{[4-(difluoromethyl)pyridin-2-yl]amino}-4-methyl-2,3′-bipyridin-6′-yl)-1-hydroxyethyl] cyclohexanecarboxylate]: 18.2 nM.
Regarding `Cc1cc(Nc2cc(C(F)F)ccn2)nc(-c2ccc([C@](C)(O)[C@H]3CC[C@H](C(=O)OCOC(=O)C(C)(C)O)CC3)nc2)c1` [Example 3-3, [(2-Hydroxy-2-methylpropanoyl)oxy]methyl trans-4-[(1R)-1-(6-{[4-(difluoromethyl)pyridin-2-yl]amino}-4-methyl-2,3′-bipyridin-6′-yl)-1-hydroxyethyl]cyclohexanecarboxylate], the concentration for half-maximal inhibition (IC50) stood at 2.3 nM.
Next, `Cc1cc(Nc2cc(C(F)F)ccn2)nc(-c2ccc([C@](C)(O)[C@H]3CC[C@H](C(=O)OCC[N+](C)(C)C)CC3)nc2)c1` [Example 1-10, 2-[({trans-4-[(1R)-1-(6-{[4-(difluoromethyl)pyridin-2-yl]amino}-4-methyl-2,3′-bipyridin-6′-yl)-1-hydroxyethyl]cyclohexyl}carbonyl)oxy]-N,N,N-trimethylethanaminium]: 1.7 nM.
Next, `CCCC[N+](C)(CCCC)COC(=O)[C@H]1CC[C@H]([C@@](C)(O)c2ccc(-c3cc(C)cc(Nc4cc(C(F)F)ccn4)n3)cn2)CC1` [Example 5-18, N-butyl-N-{[({trans-4-[(1R)-1-(6-{[4-(difluoromethyl)pyridin-2-yl]amino}-4-methyl-2,3′-bipyridin-6′-yl)-1-hydroxyethyl]cyclohexyl}carbonyl)oxy]methyl}-N-methylbutan-1-aminium]: 1.4 nM.
The same measure for `Cc1cc(Nc2cc(C(F)F)ccn2)nc(-c2ccc([C@](C)(O)[C@H]3CC[C@H](C(=O)OCOC(=O)OCCC(=O)N(C)C)CC3)nc2)c1` [Example 2-12, ({[3-(dimethylamino)-3-oxopropoxy]carbonyl}oxy)methyl trans-4-[(1R)-1-(6-{[4-(difluoromethyl)pyridin-2-yl]amino}-4-methyl-2,3′-bipyridin-6′-yl)-1-hydroxyethyl]cyclo hexanecarboxylate]: 1.5 nM.
